Counter-ions that a name gives are not always drawn.
Experiments:
[1] = system: murine colon carcinoma, C26; test: Subcutaneous murine colon carcinoma C26, CI-1033 and capecitabine; type: in vivo; conditions: for optimum tumor growth delay as single agent: CI-1033 40, 20, 10 mg/kg PO, capecitabine 750, 500 mg/kg PO days 14-16, 21-23, 28-30; for tumor free survivors: single agents or combinations
Description: (§1) On Day 0 of the test, each mouse was surgically implanted (subcutaneously) with a fragment of tumor weighing approximately 30 mg. The mice were weighed weekly, and tumor size (width and length in mm) were measured three times each week with standard calipers. Tumor mass for each animal was calculated according to the formula: [formula] where “a” is width of the tumor in mm, and “b” is the length in mm. Evaluation of anticancer activity was evaluated based on the formula T-C, where “T” and “C” are the median time (in days) required for the treated and control (respectively) tumors to reach a pre-determined size of 750 mg (the “evaluation size”). […] Standard agents were diluted as described in the package inserts and administered at various dosage levels in 0.5 mL injections.
(§2) In each experiment, mice bearing established tumors were randomized into one of four treatment groups. One group served as control treatment groups. […] The third group was further divided into four subgroups, each of which received the designated standard agent by the route and schedules indicated below.
(§3) Group 4 was further subdivided into groups receiving combination therapy.
Capecitabine was administered PO at doses of 750 and 500 mg/kg on days 14-16, 21-23, and 28-30.

[2] = system: SCC-7 Murine Squamous Cell Carcinoma; test: SCC-7 murine squamous cell carcinoma, CI-1033 with single-dose radiation
Description: Two studies were conducted. […] Radiation was delivered as either a single dose or as multiple fractions over a 5-day period.

NSCLC, renal cell cancer = test: Clinical administration of CI-1033 alone; type: in vivo, human; conditions: repeated courses and prolonged exposures, patients
From the text: The treatment may be prolonged, with or without an off drug rest period.

[3] = system: H125 human non-small cell lung cancer xenograft; type: in vivo; conditions: CI-1033 PO days 19-23 and 26-30; docetaxel IV days 19, 23, 27
Description: as §1, §2, §3

Rif-1 sarcoma = test: Rif-1 sarcoma, CI-1033 with multiple doses of radiation; type: in vivo, murine
From the text: Radiation at 5 Gy for 5 days produced a tumor growth delay of 28.5 days. […] Data representative of this effect is provided on Table I and FIG. 2.

[4] = system: L3.6pl human pancreatic carcinoma; test: Orthotopically implanted L3.6pl human pancreatic carcinoma in nude mice, CI-1033 and gemcitabine; type: in vivo; conditions: for loss of initial body weight during therapy: once daily, 5 days per week, 4 weeks
[5] = system: A431 human epidermoid, LX-1 lung, A549 lung and GEO colon carcinomas; conditions: several human tumor xenografts; cited from earlier work
[6] = system: OVCAR-5 Human Ovarian Cancer xenografts; test: Advanced OVCAR-5 xenografts, CI-1033 and cisplatin; type: in vivo
Description: One group served as control treatment groups.
Cisplatin at doses of 12, 6, 3, and 1.5 mg/kg was administered IV on days 28, 32, and 34.

[7] = system: H125 human non-small cell lung cancer xenograft; test: in vivo
Description: as §1, §2, §3
(§4) Etoposide was administered IP at doses of 80, 50, and 31 mg/kg on days 12, 16 and 20.

in vivo = conditions: female, nude, mouse, in vivo, ip
Description: as §1, §2, §3, §4

[8] = system: MDA-MB-453 human breast carcinoma cells; test: Paclitaxel-induced apoptosis in vitro, paclitaxel and CI-1033 alone or in combination; type: cell-based; conditions: 3-day exposure to paclitaxel alone
From the text: However, none of the inhibitors of the erbB family tyrosine kinases described above are irreversible and are pan erbB tyrosine kinase inhibitors. […] [Inoue, Clin. Cancer Res. 6:4874-84, 2000.]

[9] = system: H125 human cell lung carcinoma xenografts; type: in vivo; conditions: CI-1033 orally days 32-35; topotecan IP days 26-30
Description: as §1, §2, §3

[10] = CI-1033 5 mg/kg PO D 7-18 plus X-ray 10 Gy TO D 7
[11] = CI-1033 10 mg/kg PO D 7-18, no X-ray
[12] = CI-1033 10 mg/kg PO D 7-18 plus X-ray 10 Gy TO D 7
[13] = CI-1033 20 mg/kg PO D 7-18, no X-ray
[14] = CI-1033 20 mg/kg PO D 7-18 plus X-ray 10 Gy TO D 7
[15] = CI-1033 40 mg/kg PO D 7-18, no X-ray
[16] = CI-1033 40 mg/kg PO D 7-18 plus X-ray 10 Gy TO D 7
[17] = capecitabine single agent or capecitabine 750 or 500 mg/kg with CI-1033

C=CC(=O)Nc1cc2c(Nc3ccc(F)c(Cl)c3)ncnc2cc1OCCCN1CCOCC1 [CI-1033, N-[4-(3-chloro-4-fluoro-phenylamino)-7-(3-morpholin-4-yl-propoxy)-quinazolin-6-yl]-acrylamide]
optimum tumor growth delay as single agent [1]: 3.6 days
tumor free survivors [1]: 0%
% Weight Change (maximum treatment-related weight loss) [2, 10]: −15%
CR (complete response) [2, 10]: 2/6
T − C [2, 10]: 11.1 days
Toxic Deaths [2, 10]: 0/6
% Weight Change (maximum treatment-related weight loss) [2, 11]: −1%
Toxic Deaths [2, 11]: 0/6
T − C ([2]; CI-1033 10 mg/kg PO D 7-18, no X-ray, evaluation size 750 mg): 1.3 days
% Weight Change (maximum treatment-related weight loss) [2, 12]: −13%
PR (partial response) [2, 12]: 1/6
T − C [2, 12]: 9.7 days
Toxic Deaths [2, 12]: 0/6
% Weight Change (maximum treatment-related weight loss) [2, 13]: −1%
Toxic Deaths [2, 13]: 0/6
T − C ([2]; CI-1033 20 mg/kg PO D 7-18, no X-ray, evaluation size 750 mg): 0.2 days
% Weight Change (maximum treatment-related weight loss) [2, 14]: −15%
CR (complete response) [2, 14]: 2/6
PR (partial response) [2, 14]: 1/6
T − C [2, 14]: 20.4 days
Toxic Deaths [2, 14]: 0/6
% Weight Change (maximum treatment-related weight loss) [2, 15]: −2%
Toxic Deaths [2, 15]: 0/6
T − C ([2]; CI-1033 40 mg/kg PO D 7-18, no X-ray, evaluation size 750 mg): 0.9 days
% Weight Change (maximum treatment-related weight loss) [2, 16]: −14%
CR (complete response) [2, 16]: 5/6
T − C [2, 16]: 26.0 days
Toxic Deaths [2, 16]: 0/6
enhancement of antitumor effect by combination with radiation ([2]; single-dose radiation 1 hour after first of 12 PO doses of CI-1033): 91%
cumulative toxicity (NSCLC, renal cell cancer): no evidence of cumulative toxicity
optimum tumor growth delay as single agent [3]: 11.7 days
enhancement compared to radiation alone (Rif-1 sarcoma; 5 Gy radiation for 5 days, each 1 hour after daily CI-1033): 42%
tumor growth delay (Rif-1 sarcoma; CI-1033 alone, 5-day treatment schedule): 3.7 days
loss of initial body weight during therapy ([4]; CI-1033 10 mg/kg orally): 6%
loss of initial body weight during therapy ([4]; CI-1033 30 mg/kg orally): 9%
body weight between the end of therapy and terminal sacrifice ([4]; CI-1033 10 and 30 mg/kg): gained weight

COc1cc2ncnc(Nc3ccc(F)c(Cl)c3)c2cc1OCCCN1CCOCC1 [Iressa]
therapeutic effect of combination with paclitaxel versus either agent alone [5]: greater therapeutic effect

CCCCCOC(=O)Nc1nc(=O)n([C@@H]2O[C@H](C)[C@@H](O)[C@H]2O)cc1F [capecitabine, 5′-deoxy-5-fluoro-N-[(pentyloxy)carbonyl]-cytidine]
optimum tumor growth delay as single agent [1]: 22.5 days
complete responses [1, 17]: 3/6
partial responses [1, 17]: 2/6
tumor free survivors [1]: 8%

N.N.[Cl][Pt][Cl] [cisplatin, cis-diaminodichloroplatinum (II)]
anticancer effects when administered alone ([6]; CI-1033 PO days 28-37, cisplatin IV days 28, 32, 34): Neither cisplatin nor CI-1033 when administered alone produced meaningful anticancer effects
tumor growth delay (T-C) ([6]; cisplatin alone 12 mg/kg): 10 days

CC(=O)O[C@@]12CO[C@@H]1C[C@H](O)[C@@]1(C)C(=O)[C@H](O)C3=C(C)[C@@H](OC(=O)[C@H](O)[C@@H](NC(=O)OC(C)(C)C)c4ccccc4)C[C@@](O)([C@@H](OC(=O)c4ccccc4)[C@H]21)C3(C)C [docetaxel, reference compound]
optimum tumor growth delay as single agent [3]: 35.7 days

COc1cc([C@@H]2c3cc4c(cc3[C@@H](O[C@@H]3O[C@@H]5CO[C@@H](C)O[C@H]5[C@H](O)[C@H]3O)[C@H]3COC(=O)[C@H]23)OCO4)cc(OC)c1O [etoposide, 4′-demethylepipodophyllotoxin 9-[4,6-0-(R)-ethylidene-(beta)-D-glucopyranoside]]
delaying the growth of H125 as a single agent ([7]; etoposide IP days 12, 16, 20 at 50 mg/kg, CI-1033 200, 124, 77 mg/kg): relatively ineffective
tolerability ([7]; etoposide doses 80, 50, 31 mg/kg IP): well tolerated only at the lowest dose tested
MTD (in vivo): 50 mg/kg

Nc1ccn([C@@H]2O[C@H](CO)[C@@H](O)C2(F)F)c(=O)n1 [gemcitabine, 2′-deoxy-2′,2′-difluoro-cytidine, reference compound]
loss of initial body weight at terminal sacrifice ([4]; gemcitabine alone 125 mg/kg twice weekly): 4%
body weight change over the therapy period ([4]; gemcitabine alone 125 mg/kg twice weekly, tumor bearing nude mice): slight weight gain

CC(=O)O[C@H]1C(=O)[C@@]2(C)[C@H]([C@H](OC(=O)c3ccccc3)[C@]3(O)C[C@H](OC(=O)[C@H](O)[C@@H](NC(=O)c4ccccc4)c4ccccc4)C(C)=C1C3(C)C)[C@]1(OC(C)=O)CO[C@@H]1C[C@@H]2O [paclitaxel]
cells undergoing apoptosis [8]: 23%

CC[C@@]1(O)C(=O)OCc2c1cc1n(c2=O)Cc2cc3c(CN(C)C)c(O)ccc3nc2-1 [topotecan, (S)-10-[(dimethylamino)methyl]-4-ethyl-4,9-dihydroxy-1H-pyrano[3′,4′:6,7]indolizino[1,2-b]quinoline-3,14-(4H,12H )-dione monohydrochloride]
anticancer effectiveness measured by tumor growth delay, single agents [9]: meaningful anticancer effectiveness

From patent US20060293323A1, “Therapeutic Combinations of erb B Kinase Inhibitors and Antineoplastic Therapies” (priority 2002, published 2006)
